Results as given in US20240336610A1, “3CL PROTEASE SMALL-MOLECULE INHIBITOR FOR TREATING OR PREVENTING CORONAVIRUS INFECTION, AND USE THEREOF” (THE GLOBAL HEALTH DRUG DISCOVERY INSTITUTE, priority 2021, published 2024).

How the values were obtained:
[1] = target: SARS-CoV-2 main protease (3CLpro) (Severe acute respiratory syndrome coronavirus 2 (2019-nCoV) (SARS-CoV-2), UniProt P0DTD1); test: Enzyme activity test; type: biochemical; conditions: 200 nM recombinant SARS-CoV-2 main protease, 15 μM fluorescent substrate, pH 7.3
[2] = Oral pharmacokinetics in rats; type: in vivo; conditions: rat, blood, male SD rats, 15 mg/kg
Protocol: Test Example 2: Measurement of Oral Pharmacokinetics in Rats
Male SD rats were orally administered with 15 mg/kg of the compound in the examples of the present disclosure, and blood samples were collected at 0.083, 0.25, 0.5, 1, 2, 4, and 8 hours respectively. After the samples were treated with anticoagulant EDTA-K2 and acetonitrile and centrifuged, a drug concentration analysis was conducted using LC/MS/MS.

**Q.** Which IC50 [1] does the source give for COC(=O)c1cncc(C(C#N)NC(=O)[C@@H]2[C@@H]3[C@H](CN2C(=O)[C@@H](NC(C)=O)C(C)(C)C)C3(C)C)c1 (stereo in doubt) [GDI-034, 5-((1R,2S,5S)-3-((S)-2-acetamido-3,3-dimethylbutyryl)-6,6-dimethyl-3-azabicyclo[3.1.0]hexane-2-carboxamido)(cyano)methyl)methyl nicotinate] here?
**A.** The IC50 was 62 nM.

**Q.** Which IC50 [1] does the source give for CC(=O)N[C@H](C(=O)N1C[C@H]2[C@@H]([C@H]1C(=O)NC(C#N)c1cncc(Br)c1C)C2(C)C)C(C)(C)C (stereo partly drawn) [GDI-009, (1R,2S,5S)-3-((S)-2-acetamido-3,3-dimethylbutyryl)-N-((5-bromo-4-methylpyridin-3-yl)(cyano)methyl)-6,6-dimethyl-3-azabicycl o[3.1.0]hexane-2-carboxamide] here?
**A.** The IC50 was 53 nM.

**Q.** For CC(C)(C)[C@H](NC(=O)C(F)(F)F)C(=O)N1C[C@H]2[C@@H]([C@H]1C(=O)NC(C#N)c1cncc(C(F)(F)F)c1)C2(C)C (stereo partly drawn) [GDI-012, (1R,2S,5S)-N-(cyano (5-(trifluoromethyl)pyridin-3-yl)methyl)-3-((S)-3,3-dimethyl-2-(2,2,2-trifluoroacetylamino)butyryl)-6,6-dimethyl-3-azabicyclo[3.1.0]hexane-2-carboxamide], which IC50 [1] is on record?
**A.** The IC50 was 24 nM.

**Q.** What about the AUC(0-inf) [2] of the same compound?
**A.** Its AUC(0-inf) is 7140 ng·h/mL.

**Q.** And the AUC(0-t) [2]?
**A.** Its AUC(0-t) is 7080 ng·h/mL.

**Q.** And the Cmax [2]?
**A.** Its Cmax is 2120 ng/mL.

**Q.** And the half-life [2]?
**A.** Its half-life is 1.92 h.

**Q.** With CC1(C)[C@@H]2[C@@H](C(=O)NC(C#N)c3cncc(Br)c3)N(C(=O)OCc3ccccc3Cl)C[C@@H]21 (stereo partly drawn) [GDI-013, 2-chlorobenzyl((1R,2S,5S)-2-((5-bromopyridin-3-yl)(cyano)methyl)carbamoyl)-6,6-dimethyl-3-azabicyclo[3.1.0]hexane-3-carb oxylate] as the compound, how does the IC50 [1] read?
**A.** Its IC50 is 340 nM.

**Q.** Which results are given for CC(C)(C)[C@H](NC(=O)C(F)(F)F)C(=O)N1C[C@H]2[C@@H]([C@H]1C(=O)NC(C#N)c1cncc(C#N)c1)C2(C)C (stereo partly drawn) [GDI-014, (1R,2S,5S)-N-(cyano(5-cyanopyridin-3-yl)methyl)-3-((S)-3,3-dimethyl-2-(2,2,2-trifluoroacetylamino)butyryl)-6,6-dimethyl-3-azabicycl o[3.1.0]hexane-2-carboxamide]?
**A.** IC50 [1]: 46 nM; AUC(0-inf) [2]: 7820 ng·h/mL; AUC(0-t) [2]: 7800 ng·h/mL; Cmax [2]: 5000 ng/mL; half-life [2]: 0.832 h

**Q.** For CC(=O)N[C@H](C(=O)N1C[C@H]2[C@@H]([C@H]1C(=O)NC(C#N)c1cncc(-c3nc(C)no3)c1)C2(C)C)C(C)(C)C (stereo partly drawn) [GDI-015, (1R,2S,5S)-3-((S)-2-acetamido-3,3-dimethylbutyryl)-N-(cyano(5-(3-methyl-1,2,4-oxadiazol-5-yl)pyridin-3-yl)methyl)-6,6-dimethy 1-3-azabicyclo[3.1.0]hexane-2-carboxamide], which IC50 [1] is on record?
**A.** Its IC50 is 120 nM.

**Q.** With CNC(=O)c1cncc(C(C#N)NC(=O)[C@@H]2[C@@H]3[C@H](CN2C(=O)[C@@H](NC(C)=O)C(C)(C)C)C3(C)C)c1 (stereo partly drawn) [GDI-018, (1R,2S,5S)-3-((S)-2-acetamido-3,3-dimethylbutyryl)-N(cyano(5-(methylcarbamoyl)pyridin-3-yl)methyl)-6,6-dimethyl-3-azabicycl o[3.1.0]hexane-2-carboxamide] as the compound, how does the IC50 [1] read?
**A.** The IC50 was 110 nM.

**Q.** Which IC50 [1] does the source give for CN(C)c1ccc(S(=O)(=O)N[C@H](C(=O)N2C[C@H]3[C@@H]([C@H]2C(=O)NC(C#N)c2cncc(C(F)(F)F)c2)C3(C)C)C(C)(C)C)cc1 (stereo partly drawn) [GDI-019, (1R,2S,5S)-N-(cyano(5-(trifluoromethyl)pyridin-3-yl)methyl)-3-((S)-2-((4-(dimethylamino)phenyl)sulfonamido)-3,3-dimethylbutanoyl) -6,6-dimethyl-3-azabicyclo[3.1.0]hexane-2-carboxamide] here?
**A.** Its IC50 is 22 nM.

**Q.** For CC(=O)N[C@H](C(=O)N1C[C@H]2[C@@H]([C@H]1C(=O)NC(C#N)c1cnc3[nH]ccc3c1)C2(C)C)C(C)(C)C (stereo partly drawn) [GDI-020, (1R,2S,5S)-3-((S)-2-acetamido-3,3-dimethylbutyryl)-N(cyano(1H-pyrrole[2,3-b]pyridin-5-yl)methyl)-6,6-dimethyl-3-azabicyclo[3. 1.0]hexane-2-carboxamide], which IC50 [1] is on record?
**A.** Its IC50 is 19 nM.

**Q.** For Cc1ccc(S(=O)(=O)N[C@H](C(=O)N2C[C@H]3[C@@H]([C@H]2C(=O)NC(C#N)c2cncc(Br)c2)C3(C)C)C(C)(C)C)cc1 (stereo partly drawn) [GDI-021, (1R,2S,5S)-N-((5-bromopyridin-3-yl) (cyano)methyl)-3-((S)-3,3-dimethyl-2-((4-methylphenyl)sulfonamido)butanoyl)-6,6-dimethyl-3-azabicyclo[3.1.0]hexane-2-carboxamide], which IC50 [1] is on record?
**A.** Its IC50 is 19 nM.

**Q.** Which IC50 [1] does the source give for Cc1ccc(S(=O)(=O)N[C@H](C(=O)N2C[C@H]3[C@@H]([C@H]2C(=O)NC(C#N)c2cncc4ccccc24)C3(C)C)C(C)(C)C)cc1 (stereo partly drawn) [GDI-023, (1R,2S,5S)-N-(cyano(isoquinolin-4-yl)methyl)-3-((S)-3,3-dimethyl-2-((4-methylphenyl)sulfonamido)butanoyl)-6,6-dimethyl-3-azabic yclo[3.1.0]hexane-2-carboxamide] here?
**A.** The IC50 was 15 nM.

**Q.** Which IC50 [1] does the source give for CC(=O)N[C@H](C(=O)N1C[C@H]2[C@@H]([C@H]1C(=O)NC(C#N)c1c[nH]c3ccccc13)C2(C)C)C(C)(C)C (stereo partly drawn) [GDI-024, (1R,2S,5S)-3-((S)-2-acetamido-3,3-dimethylbutyryl)-N-(cyano(1H-indol-3-yl)methyl)-6,6-dimethyl-3-azabicyclo[3.1.0]hexane-2-c arboxamide] here?
**A.** Its IC50 is 66300 nM.

**Q.** With CC(C)(C)[C@H](NS(=O)(=O)C(F)(F)F)C(=O)N1C[C@H]2[C@@H]([C@H]1C(=O)NC(C#N)c1cncc(Br)c1)C2(C)C (stereo partly drawn) [GDI-025, (1R,2S,5S)-N-((5-bromopyridin-3-yl) (cyano)methyl)-3-((S)-3,3-dimethyl-2-((trifluoromethyl)sulfonamido)butanoyl)-6,6-dimethyl-3-azabicyclo[3.1.0]hexane-2-carboxamide] as the compound, how does the IC50 [1] read?
**A.** Its IC50 is 19 nM.

**Q.** Which IC50 [1] does the source give for CN(C)c1ccc(S(=O)(=O)N[C@H](C(=O)N2C[C@H]3[C@@H]([C@H]2C(=O)NC(C#N)c2cncc(Br)c2)C3(C)C)C(C)(C)C)cc1 (stereo partly drawn) [GDI-026, (1R,2S,5S)-N-((5-bromopyridin-3-yl) (cyano)methyl)-3-((S)-2-((4-(dimethylamino)phenyl)sulfonamido)-3,3-dimethylbutanoyl)-6,6-d imethyl-3-azabicyclo[3.1.0]hexane-2-carboxamide] here?
**A.** The IC50 was 17 nM.

**Q.** With CN(C)c1ccc(S(=O)(=O)N[C@H](C(=O)N2C[C@H]3[C@@H]([C@H]2C(=O)NC(C#N)c2cncc4ccccc24)C3(C)C)C(C)(C)C)cc1 (stereo partly drawn) [GDI-027, (1R,2S,5S)-N-(cyano(isoquinolin-4-yl)methyl)-3-((S)-2-((4-(dimethylamino)phenyl)sulfonamido)-3,3-dimethylbutyryl)-6,6-dimethyl-3-azabicyclo[3.1.0]hexane-2-carboxamide] as the compound, how does the IC50 [1] read?
**A.** Its IC50 is 7.6 nM.

**Q.** For CC(=O)N[C@H](C(=O)N1C[C@H]2[C@@H]([C@H]1C(=O)NC(C#N)c1cncc(-n3cccn3)c1)C2(C)C)C(C)(C)C (stereo partly drawn) [GDI-028, (1R,2S,5S)-N-((5-(1H-pyrazol-1-yl)pyridin-3-yl)(cyano)methyl)-3-((S)-2-acetylamino-3,3-dimethylbutanoyl)-6,6-dimethyl-3-azabi cyclo[3.1.0]hexane-2-carboxamide], which IC50 [1] is on record?
**A.** Its IC50 is 2.4 nM.

**Q.** Which IC50 [1] does the source give for CC(C)(C)[C@H](NS(=O)(=O)C(F)(F)F)C(=O)N1C[C@H]2[C@@H]([C@H]1C(=O)NC(C#N)c1cncc3ccccc13)C2(C)C (stereo partly drawn) [GDI-029, (1R,2S,5S)-N-(cyano(isoquinolin-4-yl)methyl)-3-((S)-3,3-dimethyl-2-((trifluoromethyl)sulfonamido)butanoyl)-6,6-dimethyl-3-azabic yclo[3.1.0]hexane-2-carboxamide] here?
**A.** The IC50 was 23 nM.

**Q.** Which IC50 [1] does the source give for CC(=O)N[C@H](C(=O)N1C[C@H]2[C@@H]([C@H]1C(=O)NC(C#N)c1cncc(-c3cnn(C)c3)c1)C2(C)C)C(C)(C)C (stereo partly drawn) [GDI-030, (1R,2S,5S)-3-((S)-2-acetamido-3,3-dimethylbutyryl)-N-(cyano(5-(1-methyl-1H-pyrazol-4-yl)pyridin-3-yl)methyl)-6,6-dimethyl-3-azabicyclo[3.1.0]hexane-2-carboxamide] here?
**A.** The IC50 was 18 nM.

**Q.** For CC(=O)N[C@H](C(=O)N1C[C@H]2[C@@H]([C@H]1C(=O)NC(C#N)c1cncc(-c3nc(C(C)C)no3)c1)C2(C)C)C(C)(C)C (stereo partly drawn) [GDI-031, (1R,2S,5S)-3-((S)-2-acetamido-3,3-dimethylbutyryl)-N-(cyano(5-(3-isopropyl-1,2,4-oxadiazol-5-yl)pyridin-3-yl)methyl)-6,6-dimet hyl-3-azabicyclo[3.1.0]hexane-2-carboxamide], which IC50 [1] is on record?
**A.** The IC50 was 100 nM.

**Q.** For CC(=O)N[C@H](C(=O)N1C[C@H]2[C@@H]([C@H]1C(=O)NC(C#N)c1cncc(-c3cn[nH]c3)c1)C2(C)C)C(C)(C)C (stereo partly drawn) [GDI-032, (1R,2S,5S)-N-((5-(1H-pyrazol-4-yl)pyridin-3-yl)(cyano)methyl)-3-((S)-2-acetylamino-3,3-dimethylbutanoyl)-6,6-dimethyl-3-azabi cyclo[3.1.0]hexane-2-carboxamide], which IC50 [1] is on record?
**A.** The IC50 was 28 nM.

**Q.** Which IC50 [1] does the source give for CC(=O)N[C@H](C(=O)N1C[C@H]2[C@@H]([C@H]1C(=O)NC(C#N)c1cncc3c(F)cccc13)C2(C)C)C(C)(C)C (stereo partly drawn) [GDI-033, (1R,2S,5S)-3-((S)-2-acetamido-3,3-dimethylbutyryl)-N-(cyano(8-fluoroisoquinolin-4-yl)methyl)-6,6-dimethyl-3-azabicyclo[3.1.0]h exane-2-carboxamide] here?
**A.** Its IC50 is 56 nM.

**Q.** With CC(=O)N[C@H](C(=O)N1C[C@H]2[C@@H]([C@H]1C(=O)NC(C#N)c1cncc(-c3ccn[nH]3)c1)C2(C)C)C(C)(C)C (stereo partly drawn) [GDI-035, (1R,2S,5S)-N-((5-(1H-pyrazol-5-yl)pyridin-3-yl)(cyano)methyl)-3-((S)-2-acetylamino-3,3-dimethylbutanoyl)-6,6-dimethyl-3-azabi cyclo[3.1.0]hexane-2-carboxamide] as the compound, how does the IC50 [1] read?
**A.** The IC50 was 17 nM.
